The numbers were not newly measured in PMC6385020 (Molecules, 2019), which cites them from elsewhere.

One data set deals with 22AG G4. Also noted: method as in PMID 28825434. Particulars: K+100 buffer, 20 °C; cited from earlier work.
In a further data set the test system is c-myc G4. More on the design: method as in PMID 21528379. Particulars: cited from earlier work.
Another data set has as its system 21CTA G4. More on the design: method as in PMID 21528379. Particulars: cited from earlier work.
For data set [1], the system named is all the tested G4s structures. More on the design: method as in PMID 21528379. The note with it: cited from earlier work.

Molecules are shown by their SMILES. “And” between values parts separate entries of the source, which are not always exact repeats. Equal values may be shown once.

Consider `CN1C(=Cc2cc[n+](C)c3ccccc23)Sc2ccccc21` [TO, Thiazole Orange], for which the KA is 1 × 10^6 (a) M^−1 in the data set on 22AG G4; 5 × 10^6 M^−1 and 5 × 10^6 (b) M^−1 with c-myc G4; 1 × 10^6 (b) M^−1 in the data set on 21CTA G4. Also, the “affinity constants towards all the tested G4s structures (Ka)” value in data set [1] was ~ 10^6 M^−1.
